From patent US20130281399A1, “TREATMENT OF DISEASES BY EPIGENETIC REGULATION” (RVX Therapeutics Inc., priority 2012, published 2013)

Columns and labels:
[1] = biological target: T1, Brd4 bromodomain 1 (Homo sapiens, UniProt O60885); assay: Inhibition of binding of tetra-acetylated histone H4 to Brd4 bromodomain 1 (TR-FRET); details: His-tagged Brd4 bromodomain 1 200 nM, tetra-acetylated histone H4 peptide 25-50 nM, 2 hours room temperature
T1 construct: made in house; host or cells: E. coli BL21(DE3)
Experimental: Proteins were cloned and overexpressed with a N-terminal 6×His tag, then purified by nickel affinity followed by size exclusion chromatography. Briefly, E. coli BL21(DE3) cells were transformed with a recombinant expression vector encoding N-terminally Nickel affinity tagged bromodomains from Brd2, Brd3, Brd4. Cell cultures were incubated at 37° C. with shaking to the appropriate density and induced overnight with IPTG. The supernatant of lysed cells was loaded onto Ni-IDA column for purification. Eluted protein was pooled, concentrated and further purified by size exclusion chromatography. Fractions representing monomeric protein were pooled, concentrated, aliquoted, and frozen at −80° C. for use in subsequent experiments.
For inhibition assays, serially diluted test compound was added to these reactions in a 0.2% final concentration of DMSO. Final buffer concentrations were 30 mM HEPES pH 7.4, 30 mM NaCl, 0.3 mM CHAPS, 20 mM phosphate pH 7.0, 320 mM KF, 0.08% BSA). […] The binding inhibitory activity was shown by a decrease in 665 nm fluorescence relative to 620 nm. IC50 values were determined from a dose response curve.

| Compound | melting point [°C] | FRET activity (<50 uM) [1] |
| --- | --- | --- |
| Cc1cc(-c2nc3cc(OC(C)C)cc(OC(C)C)c3c(=O)[nH]2)cc(C)c1OCCN1CCCC1 [Example 88, 2-(3,5-Dimethyl-4-(2-(pyrrolidin-1-yl)ethoxy)phenyl)-5,7-diisopropoxyquinazolin-4(3H)-one] | 65 to 68 | Inactive |
| COCCOc1cc(OC)c2c(=O)[nH]c(-c3ccnc(C)c3)nc2c1 [Example 110, 5-methoxy-7-(2-methoxyethoxy)-2-(2-methylpyridin-4-yl)quinazolin-4(3H)-one] | 260 to 262 | Active |
| COc1cc(OC)c2c(=O)[nH]c(-c3cc(C)c(OCCN4CCCC4)c(C)c3)nc2n1 | 228 to 230 |  |
| Cc1cc(-c2nc3cccc(Cl)c3c(=O)[nH]2)cc(C)c1OCCN1CCCC1 [Example 83, 5-Chloro-2-(3,5-dimethyl-4-(2-(pyrrolidin-1-yl)ethoxy)phenyl)quinazolin-4(3H)-one] | 179 to 180 | Inactive |
| COc1cc(OC)c2c(=O)[nH]c(-c3cc(C)c(OCCCCN4CCCC4)c(C)c3)nc2c1 [Example 78, 2-(3,5-Dimethyl-4-(4-(pyrrolidin-1-yl)butoxy)phenyl)-5,7-dimethoxyquinazolin-4(3H)-one] | 180 to 181 | Active |
| COc1cc(OC)c2c(=O)[nH]c(-c3cc(C)c(OCCN4C(=O)NC(c5ccccc5)C4=O)c(C)c3)nc2c1 (stereo not shown) [Example 79, 3-(2-(4-(5,7-Dimethoxy-4-oxo-3,4-dihydroquinazolin-2-yl)-2,6-dimethylphenoxy)ethyl)-5-phenylimidazolidine-2,4-dione] | 219.6 to 221.4 | Active |
| COc1cc(OC)c2c(=O)[nH]c(-c3cc(C)c(OCCN4C(=O)CN(C(C)C)C4=O)c(C)c3)nc2c1 [Example 74, 3-(2-(4-(5,7-Dimethoxy-4-oxo-3,4-dihydroquinazolin-2-yl)-2,6-dimethylphenoxy)ethyl)-1-isopropylimidazolidine-2,4-dione] | 219 to 221 | Active |
| COc1cc(OCCOc2ccccc2)cc2nc(-c3cc(C)nc(C)c3)[nH]c(=O)c12 [Example 103, 2-(2,6-Dimethylpyridin-4-yl)-5-methoxy-7-(2-phenoxyethoxy)quinazolin-4(3H)-one] | 223 to 224 | Active |
| COCCOc1cc(OC)c2c(=O)[nH]c(-c3cc(C)nc(C)c3)nc2c1 [Example 100, 2-(2,6-Dimethylpyridin-4-yl)-5-methoxy-7-(2-methoxyethoxy)quinazolin-4(3H)-one] | 228.8 to 230.4 | Active |
| COCCOc1cc(OCCOC)c2c(=O)[nH]c(-c3cc(C)nc(C)c3)nc2c1 [Example 101, 2-(2,6-Dimethylpyridin-4-yl)-5,7-bis(2-methoxyethoxy)quinazolin-4(3H)-one] | 149.8 to 151.4 | Active |
| COc1cc(OCCOc2ccccc2)c2c(=O)[nH]c(-c3cc(C)nc(C)c3)nc2c1 [Example 104, 2-(2,6-Dimethylpyridin-4-yl)-7-methoxy-5-(2-phenoxyethoxy)quinazolin-4(3H)-one] | 172.3 to 173.2 | Active |
| COc1cc(OC)c2c(=O)[nH]c(-c3cc(C)cc(OCCO)c3)nc2c1 [Example 113, 2-(3-(2-Hydroxyethoxy)-5-methylphenyl)-5,7-dimethoxyquinazolin-4(3H)-one] | 106.9 to 109.1 | Active |
| Cc1cc(-c2nc3cc(OCCOC(C)C)cc(OCCOC(C)C)c3c(=O)[nH]2)cc(C)n1 [Example 108, 2-(2,6-dimethylpyridin-4-yl)-5,7-bis(2-isopropoxyethoxy)quinazolin-4(3H)-one] | 124 to 125 | Active |
| Cc1cc(C)c2c(=O)[nH]c(-c3cc(C)c(OCCN4CCCC4)c(C)c3)nc2c1 [Example 89, 2-(3,5-Dimethyl-4-(2-(pyrrolidin-1-yl)ethoxy)phenyl)-5,7-dimethylquinazolin-4(3H)-one] | 181 to 182 | Active |
| COc1cc(OC)c2c(=O)[nH]c(-c3ccc(CN4C(=O)CNC4=O)cc3)nc2c1 [Example 80, 3-(4-(5,7-Dimethoxy-4-oxo-3,4-dihydroquinazolin-2-yl)benzyl)imidazolidine-2,4-dione] | 317 to 318 | Inactive |
| COCCOc1cc(OC)c2c(=O)[nH]c(-c3ccc(N4C[C@@H](C)N(C(C)=O)[C@@H](C)C4)cc3)nc2c1 [Example 9, 2-(4-((3R,5S)-4-Acetyl-3,5-dimethylpiperazin-1-yl)phenyl)-5-methoxy-7-(2-methoxyethoxy)quinazolin-4(3H)-one] | 225 to 227 | Active |
| COc1cc(OC)c2c(=O)[nH]c(-c3cc(C)c(OCCN4CCN(C)CC4)c(C)c3)nc2c1 [Example 71, 2-(3,5-Dimethyl-4-(2-(4-methylpiperazin-1-yl)ethoxy)phenyl)-5,7-dimethoxyquinazolin-4(3H)-one] | 180 to 182 | Active |
| COc1cc(OC)c2c(=O)[nH]c(-c3cc(C)nc(C)c3)nc2c1 [Example 99, 2-(2,6-Dimethylpyridin-4-yl)-5,7-dimethoxyquinazolin-4(3H)-one] | 291 to 292 | Active |
| COc1ccc2c(=O)[nH]c(-c3cc(C)c(OCCN4CCCC4)c(C)c3)nc2c1 [Example 70, 2-(3,5-Dimethyl-4-(2-(pyrrolidin-1-yl)ethoxy)phenyl)-7-methoxyquinazolin-4(3H)-one] | 218 to 220 | Inactive |
| COc1cc(OC)c2c(=O)[nH]c(-c3cc(C)c(OCCN4CCC4)c(C)c3)nc2c1 [Example 86, 2-(4-(2-(Azetidin-1-yl)ethoxy)-3,5-dimethylphenyl)-5,7-dimethoxyquinazolin-4(3H)-one] | 204 to 205 | Active |
| COc1cccc2nc(-c3cc(C)c(OCCN4CCCC4)c(C)c3)[nH]c(=O)c12 [Example 66, 2-(3,5-Dimethyl-4-(2-(pyrrolidin-1-yl)ethoxy)phenyl)-5-methoxyquinazolin-4(3H)-one] | 157 to 158 | Active |
| COc1cc(OCCOC(C)C)cc2nc(-c3cc(C)nc(C)c3)[nH]c(=O)c12 [Example 107, 2-(2,6-Dimethylpyridin-4-yl)-7-(2-isopropoxyethoxy)-5-methoxyquinazolin-4(3H)-one] | 188 to 189 |  |
| COc1cc(OC)c2c(=O)[nH]c(-c3ccc(CN4CCN(C(C)C)CC4)cc3)nc2c1 [Example 93, 2-(4-((4-Isopropylpiperazin-1-yl)methyl)phenyl)-5,7-dimethoxyquinazolin-4(3H)-one] |  | Active |
| Cc1cc(-c2nc3cc(F)cc(N4CCCC4)c3c(=O)[nH]2)cc(C)c1OCCN1CCCC1 [Example 82, 2-(3,5-Dimethyl-4-(2-(pyrrolidin-1-yl)ethoxy)phenyl)-7-fluoro-5-(pyrrolidin-1-yl)quinazolin-4(3H)-one] |  | Inactive |
| COc1cc(OC)c2c(=O)[nH]c(-c3ccc(N4C[C@@H](C)N(C(C)=O)[C@@H](C)C4)cc3)nc2n1 [Example 7, 2-(4-((3R,5S)-4-Acetyl-3,5-dimethylpiperazin-1-yl)phenyl)-5,7-dimethoxypyrido[2,3-d]pyrimidin-4(3H)-one] |  | Active |
| COc1cc(OC)c2c(=O)[nH]c(-c3ccc(N4CCCN(C)CC4)cc3)nc2c1 [Example 34, 5,7-Dimethoxy-2-(4-(4-methyl-1,4-diazepan-1-yl)phenyl)quinazolin-4(3H)-one] |  | Active |
| Cc1cc(-c2nc3nc(OC(C)C)cc(OC(C)C)c3c(=O)[nH]2)cc(C)c1OCCN1CCCC1 [Example 91, 2-(3,5-Dimethyl-4-(2-(pyrrolidin-1-yl)ethoxy)phenyl)-5,7-diisopropoxypyrido[2,3-d]pyrimidin-4(3H)-one] |  | Inactive |
| COc1cc(OC)c2c(=O)[nH]c(-c3ccc(N4CCN(C(C)=O)CC4)cc3)nc2c1 [Example 11, 2-(4-(4-Acetylpiperazin-1-yl)phenyl)-5,7-dimethoxyquinazolin-4(3H)-one] |  | Active |
| COc1cc(OC)c2c(=O)[nH]c(-c3ccc(N4CCN(Cc5ccc(F)cc5)CC4)cc3)nc2c1 [Example 29, 2-(4-(4-(4-Fluorobenzyl)piperazin-1-yl)phenyl)-5,7-dimethoxyquinazolin-4(3H)-one] |  | Inactive |
